The text below walks through data of PubChem BioAssay AID849 (SRMLSC, 2007).

Active and inactive are the calls of the source. No rule for the calls is given here.

The subject of the experiment is Saccharomyces cerevisiae lifespan shortening, growth inhibition. The experiment can be described thus: yeast lifespan shortening compounds, dose response (AID 849).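 Also: yeast growth read as optical density after two days at 30 degrees C.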
As to `COCC(C)OC(=O)/C(C#N)=C\c1coc2ccc(C)cc2c1=O` (stereo unspecified), the IC50 (commonly the concentration that gives 50% inhibition) was > 100 µM (inactive). Under `C=CCNC(=S)N/N=C(\C)c1ccccn1` stands 17.6 µM; under `CC(Sc1cccc[n+]1[O-])C(=O)Nc1cccc(S(=O)(=O)N2CCOCC2)c1` (stereo unspecified), 6.11 µM.

In the case of `Cn1c(N2CCOCC2)c(/C=N/OC(=O)c2ccc(F)cc2)c2ccccc21`, the half-maximal inhibitory concentration (IC50) was 42.2 µM. Under `CC1/C(=N/O)CC(c2ccccc2)N(C)C1c1ccccc1` (stereo unspecified) stands > 100 µM (inactive); under `CC(NC(=O)/C(C#N)=C/c1ccc(Cl)c([N+](=O)[O-])c1)c1ccccc1` (stereo unspecified), > 100 µM (inactive); under `CC/C(C)=N/Nc1cccc([N+](=O)[O-])c1`, 7.6 µM. Consider `CCCS(=O)(=O)c1nnnn1-c1cccc(OC)c1`, for which the concentration for half-maximal inhibition (IC50) was 3.4 µM. Under `CCCCCCN1N=C(C)C(C(=O)c2ccc(Cl)cc2)C1=O` (stereo unspecified) stands 16.4 µM; under `Cc1cc(C)cc(N=Cc2ccc([N+](=O)[O-])s2)c1`, 13.1 µM; under `Cc1c(Cl)cccc1N=Cc1ccc([N+](=O)[O-])s1`, > 100 µM (inactive).

In the case of `Cc1nc(N/N=C/c2ccccn2)sc1C`, the half-inhibitory concentration (IC50) was 33.7 µM. Under `O=C1CCN2C=Nc3cccc4ccc1c2c34` stands 32.9 µM; under `CCOC(=O)c1sc(=S)n(-c2cc(F)ccc2F)c1N`, > 100 µM (inactive).

For `COc1ccc(-c2cc3nc(C)cc(N4CC(C)CC(C)C4)n3n2)cc1` (stereo unspecified), the 50% inhibitory concentration (IC50) was 42.2 µM. Under `CC(=O)NC1C(=O)N=C(SCC(=O)NC2CCCCC2)NC1=O` (stereo unspecified) stands > 100 µM (inactive); under `CCc1cccc(CC)c1NC(=S)NCc1ccc2[nH]c(C)cc2c1`, > 100 µM (inactive). Under `CS(=O)(=O)N1CCN(C(=O)c2ccccc2F)CC1` stands > 100 µM (inactive). As for `O=C(O)c1cc(-c2ccc(/C=N/Nc3ccc(Cl)cc3)o2)ccc1Cl`, the IC50 was 11.7 µM. In the case of `CCCCCCCCCCCCCCCC[n+]1cccc2ccccc21` it was 0.783 µM; in that of `Cn1cccc1C(=O)Nc1nc(-c2ccccn2)cs1`, 33.7 µM. As for `Cc1cccnc1Nc1nc(-c2ccccn2)cs1`, the IC50 was 45.7 µM. In the case of `COc1ccc2nc(NC(=S)N(C)C)sc2c1` it was > 100 µM (inactive).

Consider `O=C(C1=C(O)/C(=C/c2ccc(O)cc2)CCC1)C(F)(F)F`, for which the IC50 is > 100 µM (inactive).

As to `COc1cccc2c(=O)c3c(cnn3C)n(C)c12`, the concentration for half-maximal inhibition (IC50) was 11.7 µM.

On to `CCOc1ccc(/C=C/C(=O)c2cc(Br)ccc(=O)c2O)cc1`, for which the half-inhibitory concentration (IC50) is 11.5 µM.

For the molecule `Oc1c(CN2CCCCC2)cc(Br)c2cccnc12`, the IC50 is 11.2 µM. Under `CCOc1cc(/C=N/Nc2ccccc2Cl)ccc1OCC(=O)O` stands 11.6 µM. Turning to `CCn1c2ccccc2c2cc(Nc3cc(C)nc4ncnn34)ccc21`, the IC50 was > 100 µM (inactive). Under `COc1ccc(-c2n[nH]c(C)c2-c2ccc(Cl)cc2)c(O)c1` stands 33.4 µM; under `O=C1CCCC/C1=N\Nc1ccc(OCc2ccccc2)cc1`, 13.3 µM. Under `Nc1nsc2ccccc12` stands 24.3 µM; under `c1ccc(-c2nc3nonc3nc2-c2ccccc2)cc1`, > 100 µM (inactive); under `Cc1ccc(O)c(-c2cc(-c3cccc(F)c3)n[nH]2)c1`, 19.3 µM. Under `CN1CCN(C2=Cc3cc(Cl)ccc3Sc3cc(F)ccc32)CC1` stands 15.2 µM.

For `C=CCNC1=C(Cl)C(=O)c2ccccc2C1=O`, the IC50 is > 100 µM (inactive). Under `Cc1oc(-c2cccs2)nc1CS(=O)CC(=O)NC1CCCCCC1` (stereo unspecified) stands > 100 µM (inactive); under `COc1ccccc1-c1nnc(NC(=O)C(C)SC2=NCCS2)s1` (stereo unspecified), > 100 µM (inactive); under `O=C(c1ccccc1)c1ccc2nc(N3CCCCC3)c3nncn3c2c1`, > 100 µM (inactive). As for `O=C(N/N=C1\CC2CC=CC12)c1ccc(COc2ccccc2)cc1` (stereo unspecified), the IC50 is > 100 µM (inactive). In the case of `Cc1ccc(CNC(=O)c2ccc(Cn3nc(C)c(Cl)c3C)o2)cc1` it was 12.4 µM.
